According to ChEMBL document CHEMBL1201862, “PubChem BioAssay data set” (2004):
Activity calls are given as the source filed them.

What was measured:
[1] = target: T1, Sentrin-specific protease 8 (Homo sapiens, UniProt Q96LD8); assay: SENP8 protease inhibitors, SAR follow-up, biochemical, luminescence (AID 504501); type: functional
T1 sequence (Q96LD8 whole entry): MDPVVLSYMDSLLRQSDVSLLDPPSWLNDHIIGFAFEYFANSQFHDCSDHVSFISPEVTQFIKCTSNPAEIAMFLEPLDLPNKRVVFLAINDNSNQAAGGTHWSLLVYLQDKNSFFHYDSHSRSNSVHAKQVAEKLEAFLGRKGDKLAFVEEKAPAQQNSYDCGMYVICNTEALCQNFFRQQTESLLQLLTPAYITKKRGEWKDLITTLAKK

Caspase-3 = target: T2, Caspase-3 (Homo sapiens, UniProt P42574); assay: SAR Analysis of small molecule inhibitors of Sentrin-specific proteases (SENPs) using a Caspase-3 Selectivity assay. [Related pubchem assays (depositor defined):AID2540, AID2599, AID434973, AID489001]; type: functional
T2 sequence (P42574 whole entry): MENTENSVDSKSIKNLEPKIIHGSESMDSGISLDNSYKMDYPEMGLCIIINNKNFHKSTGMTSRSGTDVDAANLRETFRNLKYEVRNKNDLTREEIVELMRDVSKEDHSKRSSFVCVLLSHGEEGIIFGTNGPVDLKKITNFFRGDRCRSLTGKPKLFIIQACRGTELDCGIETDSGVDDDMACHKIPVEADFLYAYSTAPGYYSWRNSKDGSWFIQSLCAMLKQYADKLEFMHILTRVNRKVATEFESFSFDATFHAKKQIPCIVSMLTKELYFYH

[2] = target: T3, Sentrin-specific protease 6 (Homo sapiens, UniProt Q9GZR1); assay: SAR Analysis of small molecule inhibitors of Sentrin-specific protease 6 (SENP6) using a Luminescent assay. [Related pubchem assays (depositor defined):AID2582, AID2599]; type: functional
T3 sequence (Q9GZR1 whole entry): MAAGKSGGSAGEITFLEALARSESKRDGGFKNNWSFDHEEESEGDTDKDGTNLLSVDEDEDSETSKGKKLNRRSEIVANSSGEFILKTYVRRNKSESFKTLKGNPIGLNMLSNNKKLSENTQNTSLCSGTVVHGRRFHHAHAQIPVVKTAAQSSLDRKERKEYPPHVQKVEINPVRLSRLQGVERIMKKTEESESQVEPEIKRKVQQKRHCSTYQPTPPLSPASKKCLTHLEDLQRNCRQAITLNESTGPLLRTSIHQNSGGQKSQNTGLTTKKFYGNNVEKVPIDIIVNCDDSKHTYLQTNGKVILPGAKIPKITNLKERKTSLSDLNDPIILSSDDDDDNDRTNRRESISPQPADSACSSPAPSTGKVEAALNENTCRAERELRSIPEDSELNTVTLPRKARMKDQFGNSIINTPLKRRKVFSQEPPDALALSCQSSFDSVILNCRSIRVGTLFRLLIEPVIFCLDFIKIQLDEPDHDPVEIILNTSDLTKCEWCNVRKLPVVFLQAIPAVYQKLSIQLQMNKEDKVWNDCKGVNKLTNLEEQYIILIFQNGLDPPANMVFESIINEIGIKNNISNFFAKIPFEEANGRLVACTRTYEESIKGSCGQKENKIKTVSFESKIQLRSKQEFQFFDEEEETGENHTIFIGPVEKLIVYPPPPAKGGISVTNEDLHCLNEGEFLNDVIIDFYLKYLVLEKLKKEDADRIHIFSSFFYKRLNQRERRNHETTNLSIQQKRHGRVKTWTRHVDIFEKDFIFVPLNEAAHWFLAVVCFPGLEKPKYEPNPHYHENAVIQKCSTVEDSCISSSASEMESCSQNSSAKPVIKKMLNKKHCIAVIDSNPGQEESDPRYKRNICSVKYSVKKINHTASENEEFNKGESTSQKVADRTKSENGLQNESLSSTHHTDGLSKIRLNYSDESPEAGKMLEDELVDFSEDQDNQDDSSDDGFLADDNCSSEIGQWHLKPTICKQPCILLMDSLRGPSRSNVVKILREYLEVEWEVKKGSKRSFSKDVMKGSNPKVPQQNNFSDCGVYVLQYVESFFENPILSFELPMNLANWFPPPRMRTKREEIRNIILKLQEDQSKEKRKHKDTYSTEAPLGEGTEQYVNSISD

[3] = target: T4, Sentrin-specific protease 7 (Homo sapiens, UniProt Q9BQF6); assay: SENP7 protease inhibitors, SAR follow-up, biochemical, luminescence (AID 504497); type: functional
T4 sequence (Q9BQF6 whole entry): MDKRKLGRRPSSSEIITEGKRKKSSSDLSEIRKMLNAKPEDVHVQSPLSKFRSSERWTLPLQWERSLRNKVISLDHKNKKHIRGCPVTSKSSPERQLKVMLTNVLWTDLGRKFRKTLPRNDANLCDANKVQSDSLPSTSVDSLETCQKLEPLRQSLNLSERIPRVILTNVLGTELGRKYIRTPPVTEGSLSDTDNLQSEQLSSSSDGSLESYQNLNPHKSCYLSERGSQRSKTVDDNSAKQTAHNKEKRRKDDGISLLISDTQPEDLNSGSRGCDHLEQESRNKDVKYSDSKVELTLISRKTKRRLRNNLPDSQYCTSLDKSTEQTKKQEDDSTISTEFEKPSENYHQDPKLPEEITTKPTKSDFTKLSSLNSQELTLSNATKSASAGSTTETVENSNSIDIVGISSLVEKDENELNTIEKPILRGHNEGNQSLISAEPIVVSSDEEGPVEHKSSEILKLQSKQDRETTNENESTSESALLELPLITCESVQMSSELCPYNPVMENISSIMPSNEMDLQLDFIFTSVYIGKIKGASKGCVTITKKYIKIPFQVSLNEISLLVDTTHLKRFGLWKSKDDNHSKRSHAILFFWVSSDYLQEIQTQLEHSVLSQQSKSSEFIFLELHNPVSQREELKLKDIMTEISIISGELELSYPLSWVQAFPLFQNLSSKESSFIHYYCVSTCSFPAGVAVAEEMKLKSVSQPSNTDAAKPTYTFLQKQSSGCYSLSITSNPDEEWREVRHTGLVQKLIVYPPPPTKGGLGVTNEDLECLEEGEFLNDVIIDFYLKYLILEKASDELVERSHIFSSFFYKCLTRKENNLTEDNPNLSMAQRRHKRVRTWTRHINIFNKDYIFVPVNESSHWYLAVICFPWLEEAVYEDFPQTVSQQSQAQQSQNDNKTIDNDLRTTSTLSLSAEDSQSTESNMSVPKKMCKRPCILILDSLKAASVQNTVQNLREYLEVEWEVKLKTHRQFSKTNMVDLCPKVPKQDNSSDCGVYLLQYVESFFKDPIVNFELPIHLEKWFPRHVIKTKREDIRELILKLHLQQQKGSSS

CAAX prenyl protease 2 [4] = target: CAAX prenyl protease 2 (Homo sapiens, UniProt Q9Y256); assay: human Rce1 protease inhibitors, dose response, biochemical, plate reader, dry powder samples (AID 588848)
CAAX prenyl protease 2 (Homo sapiens, UniProt Q9Y256), sequence (Q9Y256 whole entry): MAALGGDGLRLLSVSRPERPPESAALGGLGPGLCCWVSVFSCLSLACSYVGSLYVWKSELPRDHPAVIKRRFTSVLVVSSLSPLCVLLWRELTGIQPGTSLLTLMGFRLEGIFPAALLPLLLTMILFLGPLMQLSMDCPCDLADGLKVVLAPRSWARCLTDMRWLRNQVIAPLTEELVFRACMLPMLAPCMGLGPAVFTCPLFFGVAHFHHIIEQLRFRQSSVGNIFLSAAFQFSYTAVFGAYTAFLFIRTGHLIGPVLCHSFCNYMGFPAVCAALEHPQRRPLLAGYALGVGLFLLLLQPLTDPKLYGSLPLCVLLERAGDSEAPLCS

CAAX prenyl protease 2 [5] = target: T5, CAAX prenyl protease 2 (Saccharomyces cerevisiae S288c, UniProt Q03530); assay: yeast Rce1 CaaX protease inhibitors, dose response, biochemical, plate reader, dry powder retest (AID 588851)
T5 sequence (Q03530 whole entry): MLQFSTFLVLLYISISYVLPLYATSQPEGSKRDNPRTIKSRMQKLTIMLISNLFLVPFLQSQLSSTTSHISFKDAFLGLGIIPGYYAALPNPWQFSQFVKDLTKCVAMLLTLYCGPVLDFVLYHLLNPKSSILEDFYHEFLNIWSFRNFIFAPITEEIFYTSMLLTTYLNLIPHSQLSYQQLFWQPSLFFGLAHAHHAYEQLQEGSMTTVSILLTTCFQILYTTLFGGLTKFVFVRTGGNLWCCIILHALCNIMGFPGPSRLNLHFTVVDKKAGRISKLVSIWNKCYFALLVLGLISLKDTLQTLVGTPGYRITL

[6] = NIH-3T3 fibroblast cytotoxicity, dose response, cytotoxicity control, cell-based, fluorescence, Alamar Blue, secondary assay (AID 2327); type: functional;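 note: NIH-3T3 mouse fibroblasts cultured with fluconazole at 8 µg/mL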
[7] = system: Streptococcus sp. 'group A'; assay: growth inhibition of control SK(-) GAS strain, dose response, counter-screen for streptokinase expression inhibitor project, luminescence, kanamycin, BacTiterGlo, confirmation (AID 1900); type: functional, organism-based
cells [8] = type: functional, cell-based
[9] = C. albicans growth with fluconazole, confirmation, fluorescence, retest (AID 2467); type: functional, cell-based
[10] = inhibitors of intracellular T. cruzi replication, confirmation, NIH3T3 host cells, beta-gal luminescence (AID 2044); type: functional, cell-based;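 note: intracellular parasites grown in NIH/3T3 mouse fibroblasts as host cells; luminescent beta-galactosidase reporter signal from transgenic T. cruzi replicating inside host cells; inhibitors lower the luminescence signal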
cells [11] = type: functional, cell-based; remark: listed apart in the source
[12] = target: Serine/threonine-protein phosphatase (Candida dubliniensis (strain CD36 / CBS 7987 / NCPF 3949 / NRRLY-17841) (Yeast), UniProt B9W6M3); assay: calcineurin pathway inhibitors in yeast reporter, dose response, S. cerevisiae, CDRE-lacZ, luminescence, secondary (AID 2388); type: functional, cell-based;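 note: yeast reporter cells carrying a calcineurin-responsive lacZ construct stimulated with calcium chloride; luminescent beta-galactosidase reporter signal in whole cells rather than isolated phosphatase activity; potency for inhibition where a drop in reporter signal means calcineurin blockade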
Serine/threonine-protein phosphatase, sequence (B9W6M3 whole entry): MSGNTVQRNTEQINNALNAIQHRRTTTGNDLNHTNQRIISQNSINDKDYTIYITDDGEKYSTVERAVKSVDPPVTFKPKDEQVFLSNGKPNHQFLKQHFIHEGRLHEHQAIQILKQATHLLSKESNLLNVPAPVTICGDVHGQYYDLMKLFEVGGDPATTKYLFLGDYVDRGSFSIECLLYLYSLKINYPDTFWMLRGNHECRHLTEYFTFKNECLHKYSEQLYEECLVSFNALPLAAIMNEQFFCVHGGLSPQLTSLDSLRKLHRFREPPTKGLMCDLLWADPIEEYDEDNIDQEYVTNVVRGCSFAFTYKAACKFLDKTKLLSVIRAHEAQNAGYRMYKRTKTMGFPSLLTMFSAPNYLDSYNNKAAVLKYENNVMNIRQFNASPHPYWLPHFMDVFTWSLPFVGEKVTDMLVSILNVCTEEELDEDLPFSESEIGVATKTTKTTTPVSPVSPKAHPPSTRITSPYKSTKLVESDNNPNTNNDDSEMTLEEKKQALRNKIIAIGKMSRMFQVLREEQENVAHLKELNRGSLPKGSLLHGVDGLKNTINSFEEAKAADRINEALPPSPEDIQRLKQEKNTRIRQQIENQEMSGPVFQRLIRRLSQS

[13] = cytotoxicity toward NIH3T3 fibroblasts, dose response, counter-screen, cell-based, ATP luminescence, mouse fibroblasts (AID 2010); type: functional;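 note: cells exposed to compound for about 90 hours before reading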
Streptococcus = assay: Group A Streptococcus viability loss, dose response, counter-screen for streptokinase expression inhibitor project, luminescence, BacTiterGlo (AID 1915); type: functional, organism-based;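 note: potency for reduction of bacterial viability or growth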
[14] = cytotoxicity in HEK-293T cells, dose response, cytotoxicity control for TCR NF-kB inhibitor project, luminescence, T-cell screen hits (AID 489026); type: functional, cell-based;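 note: cells exposed to compound about 14 hours before the viability readout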
HEK293 [15] = assay: inhibitors of LMP1-driven NF-kB reporter, dose response, cell-based, HEK293, luciferase, cherry-pick (AID 588343); type: functional; conditions: Homo sapiens
HEK293 [16] = assay: cytotoxicity in HEK293T NF-kB-Luc cells, SAR follow-up, cytotoxicity control for NF-kB activator project, cell-based, resazurin fluorescence (AID 493251); type: functional; conditions: Homo sapiens
Jurkat = assay: SAR Analysis of small molecule inhibitors of T-cell specific antigen receptor-induced NF-kB activation in a Jurkat cell line using a luminescence assay - Set 2. [Related pubchem assays (depositor defined):AID435003, AID435012, AID465]; type: functional, cell-based; conditions: Homo sapiens
HEK293 [17] = assay: SAR Analysis of small molecule inhibitors of T-cell specific antigen receptor-induced NF-kB activation in a HEK-293T cell line using a luminescence assay - Set 2. [Related pubchem assays (depositor defined):AID435003, AID435012, AID489026]; type: functional, cell-based; conditions: Homo sapiens
INS1 = assay: beta cell apoptosis inhibitors, cytokine rescue, dose response, luminescence, retest (AID 449756); type: functional, cell-based; conditions: Rattus norvegicus;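 note: cell death triggered by IL-1 beta plus TNF-alpha plus IFN-gamma mixture; protective hits raise ATP signal compared with cytokine alone wells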
[18] = target: ATP-dependent molecular chaperone HSP82 (Candida albicans (strain WO-1) (Yeast), UniProt C4YTQ8); assay: loss of DOC-induced GRE-beta-galactosidase reporter signal, dose response, Hsp90 inhibitor project, S. cerevisiae, luminescence (AID 2400); type: functional, cell-based;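 note: beta-galactosidase luminescence from glucocorticoid response element reporter as proxy for Hsp90 function; inhibitor potency where signal loss means Hsp90 inhibition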
ATP-dependent molecular chaperone HSP82, sequence (C4YTQ8 whole entry): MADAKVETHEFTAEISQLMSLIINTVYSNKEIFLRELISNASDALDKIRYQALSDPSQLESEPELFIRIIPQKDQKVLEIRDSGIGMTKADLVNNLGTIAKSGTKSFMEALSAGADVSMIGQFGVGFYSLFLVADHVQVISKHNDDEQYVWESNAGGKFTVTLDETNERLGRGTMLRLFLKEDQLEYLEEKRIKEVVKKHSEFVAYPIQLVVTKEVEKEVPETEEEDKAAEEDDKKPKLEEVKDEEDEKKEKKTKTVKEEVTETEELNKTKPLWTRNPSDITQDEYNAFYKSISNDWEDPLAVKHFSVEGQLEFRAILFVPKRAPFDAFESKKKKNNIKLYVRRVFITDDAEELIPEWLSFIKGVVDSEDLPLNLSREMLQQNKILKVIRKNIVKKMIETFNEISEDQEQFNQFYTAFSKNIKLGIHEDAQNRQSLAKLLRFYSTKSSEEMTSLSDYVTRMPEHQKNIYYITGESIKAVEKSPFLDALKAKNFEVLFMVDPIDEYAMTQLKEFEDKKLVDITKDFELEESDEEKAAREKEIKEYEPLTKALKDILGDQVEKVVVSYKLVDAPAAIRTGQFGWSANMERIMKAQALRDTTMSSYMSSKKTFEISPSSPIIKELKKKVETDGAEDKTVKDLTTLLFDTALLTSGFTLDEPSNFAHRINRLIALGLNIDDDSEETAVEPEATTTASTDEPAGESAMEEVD

[19] = Shn3 3'UTR reporter inhibitors, dose response, cell-based, Clone20 osteoblasts, firefly luciferase, cherry-picked (AID 624132); type: functional;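 note: firefly luciferase luminescence from reporter carrying the Shn3 3'UTR in osteoblasts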
[20] = HepG2 cell cytotoxicity, dose response, cytotoxicity control for Shn3 inhibitor project, CellTiter-Glo, cherry-picked (AID 624134); type: functional, cell-based
[21] = control 3'UTR Renilla luciferase suppression, dose response, counter-screen for Shn3 inhibitor project, cell-based, Clone20-Shn3RL, cherry-picked (AID 624133); type: functional

Question: What does the source list for `CC(C)C(=O)Nc1ccc(-c2nc3cc(Cl)ccc3o2)cc1`?
Answer: IC50 [1]: > 99 µM (inactive); IC50 (Caspase-3): 23.7 µM (active); IC50 [2]: > 99 µM (inactive); IC50 [3]: 2.66 µM (active)

Question: With `CN(C)CCCN(C(=O)c1cc(-c2cccs2)nc2ccccc12)c1nc2ccc(F)cc2s1` as the compound, how does the AC50 (CAAX prenyl protease 2 [4]) read?
Answer: 49.5 µM (active)

Question: What about the AC50 (CAAX prenyl protease 2 [5]) of the same compound?
Answer: 33.6 µM (active)

Question: Which EC50 [6] does the source give for `CCCCC(=O)NC(c1ccc(Cl)cc1Cl)c1ccc2cccnc2c1O` (stereo not given) here?
Answer: 13.3 µM (active)

Question: And the EC50 [7]?
Answer: 1.29 µM (active)

Question: And the EC50 (cells [8])?
Answer: 8.53 µM (active)

Question: And the EC50 [9]?
Answer: 0.698 µM (active)

Question: And the EC50 [10]?
Answer: 0.126 µM (active)

Question: And the EC50 (cells [11])?
Answer: > 350 µM (not active)

Question: What about the EC50 [12] of the same compound?
Answer: > 180 µM (inactive)

Question: And the EC50 [13]?
Answer: 0.57 µM (active)

Question: And the EC50 (Streptococcus)?
Answer: 2.12 µM (active)

Question: And the IC50 [14]?
Answer: > 80 µM (inactive)

Question: What about the AC50 (HEK293 [15]) of the same compound?
Answer: 4.57 µM (active)

Question: What about the IC50 (HEK293 [16]) of the same compound?
Answer: 26.8 µM (inactive)

Question: And the IC50 (Jurkat)?
Answer: 3.7 µM (active)

Question: And the IC50 (HEK293 [17])?
Answer: 3.23 µM (active)

Question: What about the AC50 (INS1) of the same compound?
Answer: 0.422 µM (active)

Question: What about the EC50 [18] of the same compound?
Answer: > 150 µM (inactive)

Question: What about the AC50 [19] of the same compound?
Answer: 0.67 µM (active)

Question: And the AC50 [20]?
Answer: > 70 µM (inactive)

Question: And the AC50 [21]?
Answer: 0.861 µM (active)
